Laboratory results: PubChem BioAssay (NCI)
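Five concentrations, 48 hours, 96-well plates. TGI marks complete inhibition of growth.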

Key:
Assay in all cases: NCI-60 cell line screen, 48 h
TK-10 renal = system: TK-10 renal
HCT-116 colon = system: HCT-116 colon
SNB-75 CNS = system: SNB-75 CNS
UACC-257 melanoma = system: UACC-257 melanoma
HOP-62 NSCLC = system: HOP-62 NSCLC
U251 CNS = system: U251 CNS
786-0 renal = system: 786-0 renal
A498 renal = system: A498 renal
NCI-H23 lung = system: NCI-H23 lung
HCC-2998 colon = system: HCC-2998 colon
M19-MEL melanoma = system: M19-MEL melanoma
SNB-19 CNS = system: SNB-19 CNS
HT29 colon = system: HT29 colon
SK-MEL-28 melanoma = system: SK-MEL-28 melanoma
SF-539 CNS = system: SF-539 CNS
NCI-H522 lung = system: NCI-H522 lung
KM20L2 colon = system: KM20L2 colon
CCRF-CEM leukemia = system: CCRF-CEM leukemia
KM12 colon = system: KM12 colon
NCI-H460 lung = system: NCI-H460 lung
HOP-92 NSCLC = system: HOP-92 NSCLC
MALME-3M melanoma = system: MALME-3M melanoma
M14 melanoma = system: M14 melanoma
SK-MEL-2 melanoma = system: SK-MEL-2 melanoma
A549 NSCLC = system: A549 NSCLC
UO-31 renal = system: UO-31 renal
DLD-1 colon = system: DLD-1 colon
K-562 leukemia = system: K-562 leukemia
RXF 393 renal = system: RXF 393 renal
OVCAR-5 ovarian = system: OVCAR-5 ovarian
OVCAR-4 ovarian = system: OVCAR-4 ovarian
SF-295 CNS = system: SF-295 CNS
EKVX NSCLC = system: EKVX NSCLC
SK-OV-3 ovarian = system: SK-OV-3 ovarian
CAKI-1 renal = system: CAKI-1 renal
SF-268 CNS = system: SF-268 CNS
ACHN renal = system: ACHN renal
LXFL 529 NSCLC = system: LXFL 529 NSCLC
OVCAR-3 ovarian = system: OVCAR-3 ovarian
SK-MEL-5 melanoma = system: SK-MEL-5 melanoma
DMS 273 small cell lung = system: DMS 273 small cell lung
UACC-62 melanoma = system: UACC-62 melanoma
SN12C renal = system: SN12C renal
NCI-H226 lung = system: NCI-H226 lung
HL-60(TB) leukemia = system: HL-60(TB) leukemia
COLO 205 colon = system: COLO 205 colon
LOX IMVI melanoma = system: LOX IMVI melanoma
XF 498 CNS = system: XF 498 CNS
RPMI-8226 leukemia = system: RPMI-8226 leukemia
DMS 114 small cell lung = system: DMS 114 small cell lung
IGROV1 ovarian = system: IGROV1 ovarian
SR leukemia = system: SR leukemia
HCT-15 colon = system: HCT-15 colon
MOLT-4 leukemia = system: MOLT-4 leukemia
SW-620 colon = system: SW-620 colon
HOP-18 NSCLC = system: HOP-18 NSCLC

## CC1OC(OC2CCCc3c(O)c4c(c(O)c32)C(=O)c2ccccc2C4=O)CC(N)C1O (centres undefined)
TK-10 renal
  TGI: 3.02 µM
HCT-116 colon
  TGI: 3.11 µM
SNB-75 CNS
  TGI: 2.66 µM
UACC-257 melanoma
  TGI: 3 µM
HOP-62 NSCLC
  TGI: 2.94 µM
U251 CNS
  TGI: 3.44 µM
786-0 renal
  TGI: 2.55 µM
A498 renal
  TGI: 3.23 µM
NCI-H23 lung
  TGI: 3.22 µM
HCC-2998 colon
  TGI: 3.51 µM
M19-MEL melanoma
  TGI: 3.24 µM
SNB-19 CNS
  TGI: 3.04 µM
HT29 colon
  TGI: 2.87 µM
SK-MEL-28 melanoma
  TGI: 3.32 µM
SF-539 CNS
  TGI: 3.01 µM
NCI-H522 lung
  TGI: 3.06 µM
KM20L2 colon
  TGI: 3.84 µM
CCRF-CEM leukemia
  TGI: 2.64 µM
KM12 colon
  TGI: 2.98 µM
NCI-H460 lung
  TGI: 2.8 µM
HOP-92 NSCLC
  TGI: 2.86 µM
MALME-3M melanoma
  TGI: 3.27 µM
M14 melanoma
  TGI: 3.21 µM
SK-MEL-2 melanoma
  TGI: 3.21 µM
A549 NSCLC
  TGI: 3.37 µM
UO-31 renal
  TGI: 3.11 µM
DLD-1 colon
  TGI: 2.69 µM
K-562 leukemia
  TGI: 2.35 µM
RXF 393 renal
  TGI: 2.23 µM
OVCAR-5 ovarian
  TGI: 3.44 µM
OVCAR-4 ovarian
  TGI: 3.2 µM
SF-295 CNS
  TGI: 3.22 µM
EKVX NSCLC
  TGI: 3.27 µM
SK-OV-3 ovarian
  TGI: 2.42 µM
CAKI-1 renal
  TGI: 2.91 µM
SF-268 CNS
  TGI: 3.29 µM
ACHN renal
  TGI: 3.35 µM
LXFL 529 NSCLC
  TGI: 2.94 µM
OVCAR-3 ovarian
  TGI: 2.62 µM

## O=C(Nc1nc2ccccc2n1Cc1ccc(Cl)cc1)NC12CC3CC(CC(C3)C1)C2
TK-10 renal
  TGI: > 100 µM
HCT-116 colon
  TGI: 64 µM
SNB-75 CNS
  TGI: 22.9 µM
UACC-257 melanoma
  TGI: > 100 µM
SK-MEL-5 melanoma
  TGI: > 100 µM
HOP-62 NSCLC
  TGI: 37.3 µM
U251 CNS
  TGI: 46.9 µM
786-0 renal
  TGI: 58.4 µM
DMS 273 small cell lung
  TGI: 34.7 µM
UACC-62 melanoma
  TGI: 38 µM
SN12C renal
  TGI: > 100 µM
NCI-H23 lung
  TGI: 58.4 µM
NCI-H226 lung
  TGI: 70.7 µM
HCC-2998 colon
  TGI: > 100 µM
HL-60(TB) leukemia
  TGI: > 100 µM
M19-MEL melanoma
  TGI: > 100 µM
COLO 205 colon
  TGI: > 100 µM
SNB-19 CNS
  TGI: 53.7 µM
LOX IMVI melanoma
  TGI: > 100 µM
XF 498 CNS
  TGI: 53.2 µM
HT29 colon
  TGI: > 100 µM
RPMI-8226 leukemia
  TGI: > 100 µM
SK-MEL-28 melanoma
  TGI: 68.3 µM
SF-539 CNS
  TGI: 53.4 µM
NCI-H522 lung
  TGI: 42.7 µM
KM20L2 colon
  TGI: > 100 µM
CCRF-CEM leukemia
  TGI: > 100 µM
DMS 114 small cell lung
  TGI: 90.8 µM
IGROV1 ovarian
  TGI: > 100 µM
SR leukemia
  TGI: > 100 µM
HCT-15 colon
  TGI: > 100 µM
KM12 colon
  TGI: > 100 µM
NCI-H460 lung
  TGI: > 100 µM
HOP-92 NSCLC
  TGI: 56.8 µM
MALME-3M melanoma
  TGI: 62 µM
M14 melanoma
  TGI: > 100 µM
MOLT-4 leukemia
  TGI: > 100 µM
SK-MEL-2 melanoma
  TGI: 87.7 µM
A549 NSCLC
  TGI: 66.5 µM
UO-31 renal
  TGI: > 100 µM
DLD-1 colon
  TGI: > 100 µM
K-562 leukemia
  TGI: > 100 µM
SW-620 colon
  TGI: > 100 µM
RXF 393 renal
  TGI: 64.5 µM
OVCAR-5 ovarian
  TGI: > 100 µM
OVCAR-4 ovarian
  TGI: 28.9 µM
SF-295 CNS
  TGI: 27.3 µM
EKVX NSCLC
  TGI: > 100 µM
SK-OV-3 ovarian
  TGI: 39.2 µM
CAKI-1 renal
  TGI: > 100 µM
SF-268 CNS
  TGI: 23.8 µM
ACHN renal
  TGI: > 100 µM
LXFL 529 NSCLC
  TGI: 72 µM
HOP-18 NSCLC
  TGI: 85.4 µM
OVCAR-3 ovarian
  TGI: 60.7 µM
